“Also recorded” adds a separate entry of the source. Ends that are not written are not given here.
Tests used:
[1] = tested on: α3(IV)NC1-expressing cells (HEK293); experiment: α3(IV)NC1 conformer production in cultured cells (Western blot of culture media); assay type: cell-based, human; conditions: synthetic peptides 100-200 μM, organic compounds 5-50 μM, 24-48 h
CaM kinase II [2] = conditions: known; cited from earlier work
recombinant human GPBP [3] = biological target: T1, recombinant human GPBP (Homo sapiens, UniProt Q9Y5P4); experiment: In vitro phosphorylation: GPBP kinase activity / autophosphorylation; conditions: for GPBP kinase activity in vitro (autophosphorylation): modulators at 200 μM, 10 min autophosphorylation reaction
T1 sequence (Q9Y5P4 1-624): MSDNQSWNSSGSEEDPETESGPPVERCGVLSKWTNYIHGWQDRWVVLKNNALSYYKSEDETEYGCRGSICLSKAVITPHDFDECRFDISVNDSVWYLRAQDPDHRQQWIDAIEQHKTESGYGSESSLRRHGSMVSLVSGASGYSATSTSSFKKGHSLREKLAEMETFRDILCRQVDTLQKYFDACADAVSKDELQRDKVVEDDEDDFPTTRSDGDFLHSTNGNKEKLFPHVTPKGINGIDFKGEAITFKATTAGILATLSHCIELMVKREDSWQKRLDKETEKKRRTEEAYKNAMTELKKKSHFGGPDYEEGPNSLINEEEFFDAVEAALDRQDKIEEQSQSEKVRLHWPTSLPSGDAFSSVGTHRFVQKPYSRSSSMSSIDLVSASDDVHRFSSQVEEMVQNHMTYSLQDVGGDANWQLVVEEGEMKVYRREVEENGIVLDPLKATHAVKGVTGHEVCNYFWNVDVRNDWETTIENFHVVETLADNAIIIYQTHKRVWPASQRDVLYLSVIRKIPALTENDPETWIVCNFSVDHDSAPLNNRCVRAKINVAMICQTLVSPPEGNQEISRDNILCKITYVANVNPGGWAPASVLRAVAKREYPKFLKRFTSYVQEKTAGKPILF

recombinant human GPBP [4] = biological target: T1, recombinant human GPBP; experiment: Far Western blot with recombinant GPBP; assay type: binding; set-up: FLAG; made in house; host or cells: yeast; conditions: 1 μg peptide
NZW mice = experiment: Degenerative glomerulopathy in NZW mice (histochemical studies of kidney); assay type: in vivo
CaM kinase II [5] = experiment: CaM kinase II inhibition; assay type: biochemical
[6] = NZW treated with DAB-Am-4 and peptide

| GPBP kinase activity in vitro (autophosphorylation) (recombinant human GPBP [3]) | binding of GPBP to the peptide (recombinant human GPBP [4]) | inhibition of CaM kinase II (CaM kinase II [5]) | synergistic inhibitory effect on GPBP kinase activity (recombinant human GPBP [3]; combined with Ca^2+CaM) | synergistic inhibitory effect on GPBP kinase activity (recombinant human GPBP [3]; combined with KN62) | Molecule | α3(IV)NC1 conformer production in cultured cells [1] | relative inhibitory potency for CaM kinase II (CaM kinase II [2]) | amyloid-like matter formation (thioflavin T or Congo red staining) (NZW mice; [6]) | fibrotic reaction in glomeruli (NZW mice; [6]) | fuchsinophilic material at the subendothelial space (NZW mice; [6]) | material deposited in the glomerulus of suspected collagenous nature (NZW mice; NZW treated with DAB-Am-4 and peptide 20 μg/g i.p.) |
| --- | --- | --- | --- | --- | --- | --- | --- | --- | --- | --- | --- |
| efficiently impaired | – | – | – | – | COc1ccc(S(=O)(=O)N(CCO)c2ccccc2CN(C)CC=Cc2ccc(Cl)cc2)cc1 [KN93, 2-[N-(2-hydroxyethyl)-N-(4-methoxybenzenesulfonyl)]amino-N-(4-chlorocinnamyl)-N-methylbenzylamine] | reduced cell conformer production | more potent inhibitor than KN62 | – | – | – | – |
| – | did not display binding capacity | – | – | – | Ac-KGKPGDTGPPAAGAVMRGFVFT-NH2 [GPpep1bov] | – | – | – | – | – | – |
| efficiently inhibited | – | efficiently inhibited | no cooperative inhibitory effect | no cooperative inhibitory effect | LATLSHCIELMVKR (not fully specified (N-terminus, C-terminus)) [Q2] | reduction in conformer production; also recorded: efficiently inhibits; also recorded: more effective inhibiting cell conformer production than Q4 | – | efficiently inhibited amyloid-like matter formation | glomeruli virtually devoid of fibrotic reaction | unable to reduce | sharply reduced |
